≈ marks a conversion by molar mass, not a printed value. Calls of active or inactive are those of the source. The rule behind the calls is not given here.
Tests used:
[1] = Drug concentration in human tears at 0.6% administered topically as single dose measured after 24 hrs; type: ADME; conditions: topical or ocular, read-out: Drug uptake
Bacteroides fragilis = assay: Antibacterial activity against Bacteroides fragilis assessed as percent susceptible isolates by CLSI M11-A7 method; type: functional
Peptostreptococcus sp. = assay: Antibacterial activity against Peptostreptococcus sp. by CLSI M11-A7 method; type: functional
Prevotella sp. = assay: Antibacterial activity against Prevotella sp. assessed as percent susceptible isolates by CLSI M11-A7 method; type: functional
Fusobacterium sp. [2] = assay: Antibacterial activity against Fusobacterium sp. by CLSI M11-A7 method; type: functional
Fusobacterium sp. [3] = assay: Antibacterial activity against Fusobacterium sp. assessed as percent susceptible isolates by CLSI M11-A7 method; type: functional
Cutibacterium acnes = assay: Antibacterial activity against Propionibacterium acnes assessed as percent susceptible isolates by CLSI M11-A7 method; type: functional
Neisseria meningitidis = assay: Antibacterial activity against Neisseria meningitidis assessed as percent susceptible isolates by CLSI M7-A7 method; type: functional
Enterococcus faecalis = assay: Antibacterial activity against vancomycin- resistant Enterococcus faecalis assessed as percent susceptible isolates by CLSI M100-S18 method; type: functional
Enterococcus faecium = assay: Antibacterial activity against vancomycin- resistant Enterococcus faecium assessed as percent susceptible isolates by CLSI M100-S18 method; type: functional
Citrobacter koseri = assay: Antibacterial activity against Citrobacter koseri assessed as percent susceptible isolates by CLSI M7-A7 method; type: functional
Streptococcus sp. = assay: Antibacterial activity against Lancefield Streptococcus sp. group F assessed as percent susceptible isolates by CLSI M100-S18 method; type: functional
[4] = Antibacterial activity against Lancefield Streptococcus sp. 'group C' assessed as percent susceptible isolates by CLSI M100-S18 method; type: functional
Streptococcus agalactiae = assay: Antibacterial activity against Streptococcus agalactiae assessed as percent susceptible isolates by CLSI M100-S18 method; type: functional
[5] = Antibacterial activity against Lancefield Streptococcus sp. 'group G' assessed as percent susceptible isolates by CLSI M100-S18 method; type: functional

For `N[C@@H]1CCCCN(c2c(F)cc3c(=O)c(C(=O)O)cn(C4CC4)c3c2Cl)C1` [BESIFLOXACIN], which concentration at 24 h [1] is on record?
The concentration at 24 h was 1600 ng/mL.

What about the Activity (Bacteroides fragilis) of the same compound?
The Activity was “inactive”.

And the Activity (Clostridium perfringens)?
The Activity was “inactive”.

And the MIC50 (Peptostreptococcus sp.)?
The MIC50 was 0.25 µg/mL (≈ 0.635 µM).

And the MIC90 (Peptostreptococcus sp.)?
The MIC90 was 0.5 µg/mL (≈ 1.27 µM).

What about the Activity (Prevotella sp.) of the same compound?
The Activity was “inactive”.

And the MIC50 (Fusobacterium sp. [2])?
The MIC50 was 0.25 µg/mL (≈ 0.635 µM).

What about the MIC90 (Fusobacterium sp. [2]) of the same compound?
The MIC90 was 1 µg/mL (≈ 2.54 µM).

What about the Activity (Fusobacterium sp. [3]) of the same compound?
The Activity was “inactive”.

What about the Activity (Cutibacterium acnes) of the same compound?
The Activity was “inactive”.

For `C[C@H]1COc2c(N3CCN(C)CC3)c(F)cc3c(=O)c(C(=O)O)cn1c23.C[C@H]1COc2c(N3CCN(C)CC3)c(F)cc3c(=O)c(C(=O)O)cn1c23.O` [LEVOFLOXACIN], which Activity (Neisseria meningitidis) is on record?
Its Activity is 100%.

What about the Activity (Enterococcus faecalis) of the same compound?
Its Activity is 58.5%.

And the Activity (Enterococcus faecium)?
The Activity was 30.9%.

And the Activity (Citrobacter koseri)?
Its Activity is 99%.

Which results are given for `NC[C@H]1O[C@H](O[C@H]2[C@H](O)[C@@H](O[C@H]3O[C@H](CO)[C@@H](O)[C@H](N)[C@H]3O)[C@H](N)C[C@@H]2N)[C@H](N)C[C@@H]1O` [TOBRAMYCIN]?
Activity (Streptococcus sp.): 74%; Activity [4]: 74%; Activity (Streptococcus agalactiae): 73%; Activity [5]: 74%

Source: ChEMBL document CHEMBL1649565, “Besifloxacin, a novel fluoroquinolone, has broad-spectrum in vitro activity against aerobic and anaerobic bacteria” (Antimicrob Agents Chemother, 2009)
